Source: patent US10986835B2, “Use of 9-tricosene to control Drosophila suzukii” (Globachem NV, priority 2016, dated 2021)

Assays:
[1] = system: Drosophila suzukii; experiment: Behavior assay: copulation between wild type 4-day-old males and perfumed 4-day-old females; type: in vivo; settings: perfumed four-day-old females paired with wild type four-day-old males; filmed two hours; FIG. 3
Description: (§1) Drosophila suzukii adults were caught in the wild (Sint-Truiden, Limburg, Belgium). The flies were reared in quarantined facilities at 21° C. on Cornmeal-sucrose-yeast-agar medium.
(§2) All flies were collected within 12 hours of eclosing, after which they were used to make one-day-old samples or aged to four days old. The four-day-old socially nave flies were aged separated from the other sex, contrary to the socially experienced flies, which were aged, mixed with the other sex.
N-hexane (95%), n-heneicosane (98%), n-tricosane (98%), (Z)-7-tricosene (98%) and (Z)-9-tricosene (97%) were bought from Thermo-Fischer and Sigma Aldrich. (Z)-5-tricosene (99%) and 2-methyloctacosane (95%) were synthesized by a hired company, Ecosynth (Gent, Belgium). These compounds were dissolved in n-hexane (95%) and painted onto the abdomen of Drosophila suzukii flies using number 2 paintbrushes. […]
Behavior assays were performed in a room with regulated temperature (21° C.) and always at the same time (10 h30). […] Subsequently these videos were analyzed for courtship behavior and copulation based on Mazzoni et al. 2013 (Plos One 8(11): e80708). The behavioral data was analyzed using a contingency table and followed by t-tests, as well as one-way ANOVA tests for the continuous data.
Behavior experiments were performed as follows. […] Subjects were scored for both courtship modules as well as copulation. […]

[2] = system: Drosophila suzukii; experiment: Behavior assay: courtship behavior of wild type 4-day-old males towards perfumed flies; type: in vivo; settings: compound in n-hexane painted onto abdomen; 4 tested conditions (perfumed 1-day-old females, 1-day-old males, 4-day-old females, 4-day-old males) paired with wild type 4-day-old males; filmed two hours; FIG. 1
Description: as §1, §2
N-hexane (95%), n-heneicosane (98%), n-tricosane (98%), (Z)-7-tricosene (98%) and (Z)-9-tricosene (97%) were bought from Thermo-Fischer and Sigma Aldrich. (Z)-5-tricosene (99%) and 2-methyloctacosane (95%) were synthesized by a hired company, Ecosynth (Gent, Belgium). These compounds were dissolved in n-hexane (95%) and painted onto the abdomen of Drosophila suzukii flies using number 2 paintbrushes. The four-day-old flies were perfumed 24 hours prior to testing, one-day-old flies 1 hour prior to testing.
Behavior assays were performed in a room with regulated temperature (21° C.) and always at the same time (10 h30). The perfumed Drosophila suzukii flies were put individually with a wild type four-day-old Drosophila suzukii male in a circular arena (3 cm diameter). Every couple was filmed for two hours, due to the low activity rate of the species, using Sony Handycams CX240. Subsequently these videos were analyzed for courtship behavior and copulation based on Mazzoni et al. 2013 (Plos One 8(11): e80708). The behavioral data was analyzed using a contingency table and followed by t-tests, as well as one-way ANOVA tests for the continuous data.
Behavior experiments were performed as follows. Four different conditions of flies were perfumed: one-day-old females, one-day-old males, four-day-old females and four-day-old males. These perfumed flies were paired with wild type four-day-old males. Subjects were scored for both courtship modules as well as copulation. As a control the solvent for the perfumes (n-hexane) was used.

CCCCCCCC/C=C\CCCCCCCCCCCCC [(Z)-9-tricosene]
effect on occurrence of copulation [1]: significantly decreased
effect on occurrence of courtship [2]: no significant differences

CCCCCCCCCCCCCCCCCCCCC [n-heneicosane]
effect on occurrence of courtship [2]: no significant differences

CCCCCCCCCCCCCCCCCCCCCCCCCCC(C)C [2-methyloctacosane]
effect on occurrence of courtship [2]: no significant differences

CCCCCCCCCCCCCCCCCCCCCCC [n-tricosane]
effect on occurrence of courtship [2]: no significant differences

CCCC/C=C\CCCCCCCCCCCCCCCCC [(Z)-5-tricosene]
effect on occurrence of courtship [2]: no significant differences

CCCCCC/C=C\CCCCCCCCCCCCCCC [(Z)-7-tricosene]
effect on occurrence of copulation [1]: significantly decreased
effect on occurrence of courtship [2]: no significant differences
